Assay results taken from publication PMC10745061 (Marine Drugs, 2023).
Where two headings read alike, the source gives them in different places. Where a SMILES comes first, the peptide text is derived from it. Bridges are numbered along the chain shown (N, C = ends).

Legend:
E. coli MDR CI 1057 = settings: 37 °C
Procedure: Resistance induction experiments were performed using the previously described method. Briefly, on day one, the overnight culture of wild-type bacteria was diluted with the 2× MH broth supplemented with 1.8% NaCl to reach a final cell concentration of 10^6 CFU/mL.

[1] = 25% human serum in PBS pH 7.4, 37 °C; for a/b (%), ratio of the peptide forms in serum: RP-HPLC, ratio estimated from MALDI-TOF MS, two independent experiments
E. coli = assay type: cell-based, Escherichia coli; settings: panel incl. clinically isolated UPEC, MDR and XDR strains; regardless of resistance profile, biofilm production, presence of serum
Procedure: The clinical isolates were collected and provided by Sechenov First Moscow State Medical University hospital and the State Collection of Pathogenic Microorganisms “Obolensk” (SRCAMB collection). The resistant to conventional antibiotics strains were defined as extensively drug resistant (XDR), according to [47]. Bacterial test cultures were grown in a Mueller–Hinton broth (MHB, Sigma) at 37 °C to mid-log phase and then diluted with the 2× MH medium supplemented with 1.8% NaCl (and, optionally, with fetal bovine serum (FBS, Gibco) at different concentrations) or without salt so that to reach a final cell concentration of 10^6 CFU/mL. Moreover, 50 μL of the obtained bacterial suspension were added to aliquots of 50 μL of the peptide solutions serially diluted with sterilized 0.1% bovine serum albumin (BSA) in 96-well flat-bottom polystyrene microplates (Eppendorf #0030730011). After incubation for 24 h at 37 °C and 950 rpm on the plate thermoshaker (Biosan), minimum inhibitory concentrations (MIC) were determined as the lowest peptide concentrations that prevented growth of a test microorganism observed as visible turbidity. […] In the case of Mycobacterium smegmatis, MICs were determined in the Middlebrook 7H9 medium (HiMedia). The results were expressed as the median values determined on the basis of at least three independent experiments performed in triplicate.

E. coli ATCC 25922 = settings: BALB/c mice, n = 5, i.p. infection 10^6 CFU with 2.5% mucin; 10 mg/kg i.p. at 1 h and 4 h after infection; 7 days

## CC[C@H](C)[C@@H]1NC(=O)[C@H](Cc2c[nH]c3ccccc23)NC(=O)[C@H](C(C)C)NC(=O)[C@@H]2CSSC[C@H](NC(=O)[C@H](CCCNC(=N)N)NC(=O)[C@H](CCCNC(=N)N)NC(=O)[C@H](C(C)C)NC(=O)[C@H](CCCNC(=N)N)NC(=O)[C@H](CCCNC(=N)N)NC(=O)CNC(=O)[C@H](CC(N)=O)NC(=O)[C@H](C(C)C)NC(=O)[C@H](CO)NC1=O)C(=O)N[C@@H](Cc1c[nH]c3ccccc13)C(=O)NCC(=O)N[C@@H](CO)C(=O)NCC(=O)N[C@H](C(=O)O)CSSC[C@H](NC(=O)CNC(=O)[C@H](CCCNC(=N)N)NC(=O)[C@@H]1CCCN1C(=O)[C@@H](N)CO)C(=O)N[C@@H](Cc1ccccc1)C(=O)N2 [HfBRI-25] (H-SPRGCFCVWISVNGRRVRRCWGSGC-OH; disulfide 5-25, 7-20; N-terminus and C-terminus assumed)
E. coli MDR CI 1057; 21 passages (days) in the presence of the agent, MHB + 0.9% NaCl
  Change of MIC value after resistance selection: two-fold
E. coli MDR CI 1057; Mueller–Hinton broth supplemented with 0.9% NaCl
  Initial MIC value before resistance selection: 1 µM
[1]; after 1 h of incubation
  Part of the peptide converted into 23-residue form b: More than half
[1]; after 24 h, RP-HPLC peak area, mean of two independent experiments
  Two active forms (a/b) remained intact in serum: more than 80%
[1]; time 1 h
  a/b (%), ratio of the peptide forms in serum: 39%
[1]; time 3 h
  a/b (%), ratio of the peptide forms in serum: 6%
[1]; time 24 h
  a/b (%), ratio of the peptide forms in serum: 0%
E. coli
  MIC value against all tested E. coli strains: 1 to 2 µM
E. coli ATCC 25922
  Survival / therapeutic efficacy: 100%
